Data taken from patent US9593069B2, “Cyclohexane-1,3-diones for use in the treatment of amyotrophic lateral sclerosis” (Northwestern University, priority 2009, dated 2017).
In brackets after ≈: the same amount, converted by molar mass. Where two headings read alike, the source gives them in different places. Values belong to the compound of their own block, whether it stands above or below them. Peptide text beside a SMILES is read from it. * marks the point of attachment. Cbz = O=C(OCc1ccccc1)*

Columns and labels:
[1] = system: PC12 cells that express mutant G93A SOD1; assay: High throughput cytotoxicity protection assay (PC12 Protection Assay); assay type: cell-based
Description: Cultured cells are utilized to conduct high throughput assays for compounds that protect against mutant SOD1-induced cytotoxicity. Two assays are used: first, in the cytotoxicity protection assay, compounds are screened for their ability to protect cells from the cytotoxic effects of aggregated mutant SOD1, irrespective of mechanism of drug action. Second, in the protein aggregation assay, compounds are screened for their ability to reduce aggregation of mutant SOD1. The high throughput cytotoxicity protection assay is the primary screen and compounds active in the primary screen (and their analogs) move forward into the secondary screen for protein aggregation.
(§1) The high throughput cytotoxicity protection assay was carried out in PC12 cells that express mutant G93A SOD1 as a YFP fusion protein from a doxycycline-inducible promoter (Matsumoto et al., J. Cell. Biol. 2005, 171, 75). […] This idea was tested by examining the sensitivity of PC12 cells to SOD1 aggregates in the presence and absence of proteasome inhibitor MG132. PC12 cells expressing no SOD1, wild type SOD1, G85R SOD1 or G93A SOD1 were grown with or without MG132 (FIG. 1). Cells expressing no SOD1, wild type SOD1 and G85R SOD1 were relatively insensitive to MG132, with an IC50 of approximately 400 nM. […] In these cells, protein aggregation was detected after 24 h and loss of cell viability was detected at approximately 48 h. […] The ability of protein aggregates to induce cell death was examined by treating G93A SOD1-expressing cells with MG132 for 24 h, removing the MG132 by washing and assaying cell viability after another 24 h. Because the loss of cell viability was similar following MG132 removal (FIG. 1, part C), it is likely that mutant SOD1 aggregates contribute directly to cytotoxicity in PC12 cells.
(§2) PC12 cells expressing G93A SOD1 were treated with 100 nM MG132 with or without co-treatment with geldanamycin or radicicol. […] Statistical analysis of the data produced a Z′ value of 0.55, which would predict good performance as a positive control in a high throughput screen (Zhang et al., J. Biomol. Screen 1999, 4(2), 67-73).

[2] = Human metabolic potential; assay type: in vitro ADME
Experimental: (§3) Liver Cytochrome P450 (CYP450) enzymes are the major route for xenobiotic metabolism and microsomal and hepatocyte stability is the best predictor of pharmacokinetic half-life. Cross-species comparisons of metabolism in liver microsomes can predict potential issues with liver toxicity in humans. Selected active compounds are tested in liver microsomes from efficacy species (mouse), toxicity species (rat, dog, monkey), and humans for metabolic stability.

[3] = Mouse metabolic potential; assay type: in vitro ADME
Experimental: as §3

Plasma stability = assay type: in vitro ADME
Experimental: Plasma stability of active compounds is assessed in efficacy species (mouse), toxicity species (rat, dog, monkey), and human cells.

Caco-2 = Caco-2 permeability; assay type: in vitro ADME
Experimental: High membrane permeability is required for effective GI absorption and optimal bioavailability. Passive permeability is typically assessed in the PAMPA artificial membrane assay (Kansy et al., J. Med. Chem. 2002, 45(8), 1712-1722). Cell-based permeability determinations using the Caco-2 cell assay are more resource intensive but more predictive of active transport or efflux in vivo (Artursson et al., Adv. Drug. Deliv. Rev. 2001, 46(1-3), 27-43). Caco-2 assays are performed as needed during SAR development.

Solubility = assay type: physicochemical; conditions: aqueous solution
Experimental: Because compounds are stored in DMSO, it is necessary to determine aqueous solubility of initial hit compounds and their analogs. High solubility in aqueous solution is necessary for high GI absorption, bioavailability, and for chemical formulation. Compounds should be soluble in aqueous solution at >10 μg/ml. Solubility of >50 μg/ml is preferred.

primary cortical neurons = assay: Neuronal penetration assay (protection from MG132 toxicity); assay type: cell-based; conditions: for Different from control at 5 SD*: primary cortical neurons, toxic dose of MG132, 5 SD = Standard Deviation (5σ)
Experimental: Neurons are a highly differentiated cell type, and it has been commonly observed that many chemical structures are unable to penetrate into these cells. In many embodiments, a drug used to treat a neurodegenerative disease should desirably penetrate into neurons.
A neuronal penetration assay was developed as follows. […] In order to determine if this compound could protect primary cortical neurons from MG132 toxicity primary cortical neurons were treated with a toxic dose of MG132 together with various concentrations of 5-(3,5-bis(trifluoromethyl)phenyl)cyclohexane-1,3-dione. […] Analogs of 5-(3,5-bis(trifluoromethyl)phenyl)cyclohexane-1,3-dione were then prepared and tested to determine whether chemical modifications would lead to a compound with neuronal cell penetrating ability. […] As summarized in Table 2 below, these analogs also retained protective activity against mutant SOD1 toxicity.

[4] = In vivo pharmacological properties
[5] = system: PC12 cells expressing G93A SOD1; assay: MG132 sensitivity, cell survival by viability stain calcein-AM; assay type: cell-based; conditions: for toxicity (cell survival): 100 nM
Experimental: (§4) FIGS. 1A-C. Proteasome inhibition is selectively toxic to PC12 cells expressing mutant G93A SOD1. Cell survival was determined using the viability stain calcein-AM.
as §1

[6] = system: PC12 cells expressing G93A mutant SOD1; assay: Mutant SOD1 direct protein aggregation assay; assay type: cell-based
Experimental: as §2
(§5) In PC12 cells that express wild-type SOD1, SOD1 was diffusely localized throughout the cell (Matsumoto et al., J. Cell. Biol 2005, 171(1), 75-85). […] Therefore, these effects are likely to be due to MG132-induced proteasome inhibition, and not due to an off-target effect of MG132.
(§6) The identification of a positive control is a crucial step in assay development. Thus, PC12 cells expressing G85R or G93A mutant SOD1 were treated with MG132 to induce protein aggregation, and then co-treated with candidate chemical suppressors of protein aggregation. […] Both compounds induce heat shock transcription factor HSF-1, which in turn induces the heat shock response (FIG. 4). Treatment with radicicol reduced the proportion of cells with aggregates from 75% to 25%, a sufficient difference to allow visual scoring for compounds with efficacy equal to or greater than radicicol.

[7] = system: PC12 cells expressing G85R SOD1; assay: Mutant SOD1 direct protein aggregation assay; assay type: cell-based
Description: Compounds that are active in the above assay could theoretically protect against mutant SOD1-induced cytotoxicity through a number of mechanisms, including the following: 1) Compounds could nonspecifically block or reverse protein aggregation via chaperone induction, as observed for radicicol and geldanamycin 2) Compounds could block or reverse the aggregation of a specific aggregated protein form 3) Compounds could interfere with an event downstream of protein aggregation that plays a critical role in mutant SOD1-induced cytotoxicity (e.g., proteasome function). 4) Compounds could act directly on SOD1 in a manner that prevents mutant SOD1 aggregation. These possibilities were tested using an assay that directly measures protein aggregation. In addition, unlike the high throughput cytotoxicity protection assay, the protein aggregation assay is based on G85R SOD1; this broadens the scope of the screening strategy, and should eliminate compounds with highly specific activity (i.e., G93A SOD1 limited) against protein aggregation.
as §5, §6
To allow this assay to be used in a high-throughput manner, a Cellomics Arrayscan® high content microscopy system was used for screening and quantification. […]

[8] = system: PC12 cells expressing wild-type SOD1; assay: Mutant SOD1 direct protein aggregation assay; assay type: cell-based
Description: as §5

[9] = system: PC12 cells expressing no SOD1, wild type SOD1 and G85R SOD1; assay: MG132 sensitivity, cell survival by viability stain calcein-AM; assay type: cell-based; conditions: Rattus norvegicus, PC-12, read-out: IC50 (loss of cell viability)
Experimental: as §4, §1

[10] = Rattus norvegicus, PC-12; read-out: PC12 Protection Assay (Average EC50)

SMILES: O=C1CC(=O)CC(c2cc(C(F)(F)F)cc(C(F)(F)F)c2)C1 [drawing 215]
EC50 [1, 10]: ~1500 nM

Human Metabolic Potential [2]: low
half-life ([2]; liver microsomes, read-out: Human Metabolic Potential T1/2): > 3 h
Mouse Metabolic Potential [3]: low
half-life ([3]; liver microsomes, read-out: Mouse Metabolic Potential T1/2): > 3 h
Plasma Stability (Plasma stability): medium
Caco-2 predicted permeability (Caco-2): high predicted permeability
Caco-2 A − B (Caco-2; A − B): 38 ×10⁻⁶ cm/s
solubility (Solubility): 500 µM (≈ 162 µg/mL)
SMILES: O=C1CC(=O)CC(c2cc(C(F)(F)F)cc(C(F)(F)F)c2)C1 [drawing 217]
EC50 ([1]; Rattus norvegicus, PC-12; read-out: Potency (EC50)): 700 nM

SMILES: CC(Oc1cc(C(F)(F)F)cc(C(F)(F)F)c1)C1CC(=O)CC(=O)C1 (stereo not drawn)
EC50 ([1]; Rattus norvegicus, PC-12, read-out: PC12 Protection Assay (Average EC50)): ~4000 nM
Different from control at 5 SD* (primary cortical neurons): YES

half-life ([4]; blood): ~3.5 h
blood brain barrier penetration ([4]; in vivo): penetration of the blood brain barrier
oral availability ([4]; in vivo, po): good oral availability
SMILES: O=C1CC(=O)CC(c2cc(C(F)(F)F)cc(C(F)(F)F)c2)C1 [5-(3,5-bis(trifluoromethyl)phenyl)cyclohexane-1,3-dione]
EC50 ([1]; Rattus norvegicus, PC-12; read-out: potency): ~1500 nM
protection of cultured PC12 cells / protective activity against mutant SOD1 toxicity ([1]; toxic effects of MG132): protects cultured PC12 cells from the toxic effects of MG132
protection of primary cortical neurons from MG132 toxicity (primary cortical neurons; various concentrations, FIG. 6): no dose of this compound was effective in protecting the primary cortical neurons
volume of distribution in vivo ([4]; in vivo): surprisingly small volume of distribution

SMILES: CC(C)C[C@H](NC(=O)[C@H](Cc1ccccc1)NC(=O)c1cnccn1)B(O)O [bortezomib]
sensitivity of PC12 cell lines to proteasome inhibitor, compared with MG132 [5]: Qualitatively similar results

SMILES: C[C@@H]1C[C@H]2O[C@@H]2/C=C\C=C\C(=O)Cc2c(Cl)c(O)cc(O)c2C(=O)O1 [radicicol]
cell viability of G93A SOD1 cells under MG132 ([1]; co-treatment with 100 nM MG132): increased cell viability in a dose-dependent manner
cell viability of G93A SOD1 cells under MG132 ([1]; co-treatment with 100 nM MG132; listed as Radicicol): protects
formation of protein aggregates ([6]; G93A SOD1 cells, 100 nM MG132): reduced formation of protein aggregates
suppression of MG132-induced mutant SOD1 aggregation ([7]; G93A or G85R SOD1 cells, MG132 co-treatment): aggregates are reduced
proportion of cells with aggregates on co-treatment ([7]; PC12 cells expressing G85R or G93A mutant SOD1, MG132 co-treatment, 75% without): 25%

SMILES: O=C1CC(=O)CC(C2CC2c2cc(C(F)(F)F)cc(C(F)(F)F)c2)C1 (stereo not drawn)
EC50 [1, 10]: ~3500 nM
Different from control at 5 SD* (primary cortical neurons): YES

SMILES: CC(C)C[C@@H](C=O)NC(=O)[C@H](CC(C)C)NC(=O)[C@H](CC(C)C)NC(=O)OCc1ccccc1 [MG132] (Cbz-Leu-Leu-Leu-aldehyde)
cells with protein aggregates following treatment ([6]; cells expressing G93A mutant SOD1): 75%
protein aggregation after treatment [8]: no aggregation was observed
IC50 [9]: ~400 nM
toxicity (cell survival) ([5]; 24 hr, any of the cell lines): no toxicity
toxicity (cell survival) ([5]; after 48 hours): selectively toxic to the G93A SOD1 cell line
sensitivity of G93A SOD1 cells relative to the other cell lines ([5]; G93A SOD1 vs no SOD1, wild type SOD1, G85R SOD1 cells): approximately 5 fold
IC50 ([5]; Rattus norvegicus, PC-12, read-out: IC50 (loss of cell viability)): ~75 nM
cells containing protein aggregates after treatment ([7]; cells expressing G85R SOD1): up to 75%

SMILES: CCCCCCCCCCC(=O)OC1=CC(=O)CC(c2cc(C(F)(F)F)cc(C(F)(F)F)c2)C1 (stereo not drawn)
EC50 [1, 10]: ~1500 nM
